In the test the target is T1, alternative oxidase (AOX) (Trypanosoma brucei, UniProt Q26710).
T1 construct: single-subunit quinol oxidase reconstituted into proteoliposomes
As to the kind of experiment: coupled NADH:O2 oxidoreduction in CI/Q10/AOX proteoliposomes. The format is biochemical. To be noted: complex I rate determining; Q10H2 formed in the membrane by complex I.

T1 sequence (Q26710 25-329): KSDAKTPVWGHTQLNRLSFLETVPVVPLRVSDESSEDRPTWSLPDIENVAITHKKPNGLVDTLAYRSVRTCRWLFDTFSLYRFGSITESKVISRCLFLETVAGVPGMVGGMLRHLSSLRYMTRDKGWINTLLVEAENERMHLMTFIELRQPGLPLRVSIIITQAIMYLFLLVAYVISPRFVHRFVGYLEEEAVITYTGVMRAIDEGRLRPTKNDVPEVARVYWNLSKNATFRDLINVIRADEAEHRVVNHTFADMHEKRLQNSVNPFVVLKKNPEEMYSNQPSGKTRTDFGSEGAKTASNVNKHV

As to `COc1c(O)c(C)c(C/C=C(\C)CC/C=C(\C)CC/C=C(\C)CC/C=C(\C)CC/C=C(\C)CC/C=C(\C)CC/C=C(\C)CC/C=C(\C)CC/C=C(\C)CCC=C(C)C)c(O)c1OC` [Q10H2], the “coupled NADH:O2 oxidoreduction in CI/Q10/AOX proteoliposomes” value was “AOX reoxidizes the Q10H2 and reduces O2 to H2O”.
